Assay results published in the supplement of paper PMC4862054.

Assays:
Test in all cases: normalised viability (% of control), CellTiter-Blue; higher = more viable cells (about 100 = DMSO control)
Details in all cases: incubation time: 72 h
CAL-148 = tested on: CAL-148
In short: (§1)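 Plates were quality-checked by Z'-factor and normalised to vehicle (100) and a positive kill control (0). The underlying assay incubated breast cancer cell lines for 72 h on 384-well plates with compound, then added 2.5 µl CellTiter-Blue for 2 h at 37 °C and read at 560/590 nm. The value is normalised viability at a single listed concentration of the series.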

MDA-MB-436 = tested on: MDA-MB-436
In short: as §1

MDA-MB-453 = tested on: MDA-MB-453
In short: as §1

HDQ-P1 = tested on: HDQ-P1
In short: as §1

HCC1599 = tested on: HCC1599
In short: as §1

Hs578T = tested on: Hs578T
In short: as §1

HCC1937 = tested on: HCC1937
In short: as §1

DU-4475 = tested on: DU-4475
In short: as §1

BT-549 = tested on: BT-549
In short: as §1

MDA-MB-468 = tested on: MDA-MB-468
In short: as §1

SK-BR-3 = tested on: SK-BR-3
In short: as §1

HCC1143 = tested on: HCC1143
In short: as §1

CAL-85-1 = tested on: CAL-85-1
In short: as §1

CAL-51 = tested on: CAL-51
In short: as §1

MFM-223 = tested on: MFM-223
In short: as §1

COCC1(CO)C(=O)C2CCN1CC2 (stereo not given) [Prima-1 Met]
normalised viability [%]
Details | 3 nM | 10 nM | 30 nM | 100 nM | 1000 nM | 10000 nM
BT-549 | – | 105 | – | – | 87.8 | 109
CAL-51 | 93.7 | – | 93.2 | 96.4 | – | –
CAL-85-1 | 91.3 | – | 78.1 | 103 | – | –
CAL-148 | 93.3 | – | 93 | 89.2 | – | –
DU-4475 | 109 | – | 88.4 | 122 | – | –
HCC1143 | – | 82.3 | – | – | 73.2 | 75.2
HCC1599 | – | 93.4 | – | – | 120 | 106
HCC1937 | – | 97.8 | – | – | 73.8 | 75.4
HDQ-P1 | 91.3 | – | 81.2 | 74.4 | – | –
Hs578T | – | 110 | – | – | 106 | 88.9
MDA-MB-436 | – | 86.9 | – | – | 81.9 | 104
MDA-MB-453 | 95.4 | – | 107 | 98 | – | –
MDA-MB-468 | – | 104 | – | – | 115 | 104
MFM-223 | – | 103 | – | – | 91.3 | 111
SK-BR-3 | – | 96.1 | – | – | 101 | 90.8

O=C(Nc1cccnc1)N1CCC(Cc2cccc(Oc3ccc(C(F)(F)F)cn3)c2)CC1 [PF-3845]
normalised viability [%]
Details | 3 nM | 10 nM | 30 nM | 100 nM | 1000 nM | 10000 nM
BT-549 | – | 93.3 | – | – | 86.9 | 48.6
CAL-51 | 109 | – | 98.1 | 103 | – | –
CAL-85-1 | 89.6 | – | 89.5 | 87.1 | – | –
CAL-148 | 91 | – | 85.3 | 97.9 | – | –
DU-4475 | 90.2 | – | 90.7 | 87.6 | – | –
HCC1143 | – | 84.3 | – | – | 88.5 | 89.5
HCC1599 | – | 95.1 | – | – | 114 | 76.6
HCC1937 | – | 122 | – | – | 108 | 97.2
HDQ-P1 | 129 | – | 115 | 113 | – | –
Hs578T | – | 116 | – | – | 94.3 | 79.1
MDA-MB-436 | – | 98.1 | – | – | 116 | 101
MDA-MB-453 | 112 | – | 101 | 101 | – | –
MDA-MB-468 | – | 106 | – | – | 117 | 62.8
MFM-223 | – | 91.8 | – | – | 95.5 | 74.1
SK-BR-3 | – | 111 | – | – | 106 | 116

NC(=O)c1ccc(I)c([N+](=O)[O-])c1 [Iniparib]
normalised viability [%]
Details | 3 nM | 10 nM | 30 nM | 100 nM | 1000 nM | 10000 nM
BT-549 | – | 104 | – | – | 112 | 116
CAL-51 | 92.6 | – | 92.9 | 96.4 | – | –
CAL-85-1 | 91.5 | – | 83.8 | 89.5 | – | –
CAL-148 | 85.6 | – | 92.8 | 90.2 | – | –
DU-4475 | 84.1 | – | 73.9 | 98.8 | – | –
HCC1143 | – | 93.6 | – | – | 102 | 91.3
HCC1599 | – | 88.3 | – | – | 88.3 | 89.8
HCC1937 | – | 86 | – | – | 97.4 | 97.6
HDQ-P1 | 99.3 | – | 104 | 111 | – | –
Hs578T | – | 115 | – | – | 108 | 109
MDA-MB-436 | – | 104 | – | – | 116 | 109
MDA-MB-453 | 91.7 | – | 94.7 | 99.9 | – | –
MDA-MB-468 | – | 97.9 | – | – | 107 | 91.6
MFM-223 | – | 93.9 | – | – | 99 | 95.4
SK-BR-3 | – | 89.7 | – | – | 104 | 91.5

C=C1C[C@@H]2[C@H](CC[C@]3(C)C(=O)CC[C@@H]23)[C@@]2(C)C=CC(=O)C=C12 [Exemestane]
normalised viability [%]
Details | 3 nM | 10 nM | 30 nM | 100 nM | 1000 nM | 10000 nM
BT-549 | – | 83.5 | – | – | 108 | 85.9
CAL-51 | 101 | – | 95.8 | 86.5 | – | –
CAL-85-1 | 90.6 | – | 81.8 | 89.8 | – | –
CAL-148 | 95.1 | – | 88.7 | 87 | – | –
DU-4475 | 95.1 | – | 98 | 79.4 | – | –
HCC1143 | – | 88.7 | – | – | 97.8 | 82.8
HCC1599 | – | 81.7 | – | – | 86.6 | 77
HCC1937 | – | 87.7 | – | – | 88.3 | 87.8
HDQ-P1 | 94.5 | – | 98.5 | 97.1 | – | –
Hs578T | – | 112 | – | – | 110 | 100
MDA-MB-436 | – | 112 | – | – | 87.4 | 96.2
MDA-MB-453 | 103 | – | 87.3 | 97.8 | – | –
MDA-MB-468 | – | 109 | – | – | 112 | 96.5
MFM-223 | – | 90.6 | – | – | 101 | 108
SK-BR-3 | – | 85.2 | – | – | 101 | 79.3

Oc1ccc2c(c1)CC[C@H](c1ccccc1)[C@@H]2c1ccc(OCCN2CCCC2)cc1 [Lasofoxifene]
normalised viability [%]
Details | 0.3 nM | 1 nM | 3 nM | 10 nM | 100 nM | 1000 nM
BT-549 | – | 88.1 | – | – | 83.2 | 90.3
CAL-51 | 100 | – | 97.9 | 92.6 | – | –
CAL-85-1 | 83.5 | – | 82.5 | 93 | – | –
CAL-148 | 95.9 | – | 104 | 102 | – | –
DU-4475 | 93.6 | – | 91.9 | 88.8 | – | –
HCC1143 | – | 86 | – | – | 104 | 95.6
HCC1599 | – | 96 | – | – | 81.4 | 103
HCC1937 | – | 88.6 | – | – | 109 | 121
HDQ-P1 | 97.7 | – | 114 | 101 | – | –
Hs578T | – | 108 | – | – | 103 | 118
MDA-MB-436 | – | 95.5 | – | – | 84.3 | 101
MDA-MB-453 | 115 | – | 98.3 | 98.9 | – | –
MDA-MB-468 | – | 95 | – | – | 95.8 | 94.4
MFM-223 | – | 83.5 | – | – | 84 | 89.7
SK-BR-3 | – | 108 | – | – | 98.4 | 101

c1ccc2c(CCNc3ccc(Nc4ccncc4)cc3)c[nH]c2c1 [Serdemetan]
normalised viability [%]
Details | 3 nM | 10 nM | 30 nM | 100 nM | 1000 nM | 10000 nM
BT-549 | – | 95.6 | – | – | 81.5 | 26.5
CAL-51 | 118 | – | 106 | 108 | – | –
CAL-85-1 | 93.3 | – | 85.8 | 84.5 | – | –
CAL-148 | 88.9 | – | 86.1 | 96.3 | – | –
DU-4475 | 93.1 | – | 88.3 | 89.6 | – | –
HCC1143 | – | 87.7 | – | – | 77.7 | 43.3
HCC1599 | – | 103 | – | – | 93.8 | 74.6
HCC1937 | – | 91.2 | – | – | 94.3 | 51.4
HDQ-P1 | 97.5 | – | 99.7 | 96.7 | – | –
Hs578T | – | 108 | – | – | 91.5 | 66.8
MDA-MB-436 | – | 96.8 | – | – | 51.4 | 43.6
MDA-MB-453 | 119 | – | 93.8 | 104 | – | –
MDA-MB-468 | – | 111 | – | – | 103 | 60.9
MFM-223 | – | 83.2 | – | – | 104 | 66.4
SK-BR-3 | – | 96.6 | – | – | 116 | 72.2
